Assay results from patent US20090176786A1, “Benzoylurea Compounds and Use Thereof” (priority 2005, published 2009).

Assays:
Format in all cases: in vivo
[1] = system: Frankliniella occidentalis; assay: Test Example 4: spray on cucumber, control value against Frankliniella occidentalis larvae; conditions: 168 h, test concentration 50 ppm, spray 20 ml/cup on cucumber, 30 larvae, seven days after spraying
Method: The obtained preparation was diluted with water so that the active ingredient concentration became to a predetermined concentration to prepare a spray solution for test. […] were planted in polyethylene cups, and were grown until the first true leaf was developed. The spray solution for test prepared above was sprayed at the rate of 20 ml/cup on the cucumber. After the pesticidal solution sprayed onto the cucumber was dried, the first true leaf was cut off and then placed on a filter paper (diameter: 70 mm) containing water in a polyethylene cup (diameter: 110 mm). On the cucumber leaf, 30 larvae of Frankliniella occidentalis were released, and the polyethylene cup was capped. Seven days after spraying, the number of pests surviving on the cucumber leaf was counted, and a control value was calculated by the following equation: Control value(%)={1−(Cb×Tai)/(Cai×Tb)}×100 wherein, each symbol has following meaning: Cb: the number of pests before treatment in a non-treated area Cai: the number of pests at the time of observation in a non-treated area Tb: the number of pests before treatment in a treated-area Tai: the number of pests at the time of observation in a treated-area. […] The test concentrations of the other present compounds were 50 ppm.

Plutella xylostella [2] = assay: Test Example 1: spray on cabbage, dead pest rate of Plutella xylostella larvae; conditions: 500 ppm spray solution, 20 ml/cup on cabbage, 5 second-instar larvae, after 5 days; for pest or weed control at 500 ppm: Plutella xylostella, 120 h
Method: Ten parts of the present compound (1), (2), (5) to (19), (21) to (34), (36) to (61), (63), (64), (68) to (71), (74), (76) to (78), (82) to (83), (89), (93), (94), (97), (99), (102) to (110), (111), (115), (116) (117) to (120) or (123) to (134); 35 parts of white carbon containing 50 parts of polyoxyethylene alkyl ether sulfate ammonium salt; and 55 parts of water were mixed, and finely ground by a wet grinding method to obtain a 10% flowable agent. The obtained flowable agent was diluted with water so that the active ingredient concentration became to 500 ppm to prepare a spray solution for test.
Cabbages were planted in polyethylene cups, and grown until the third true leaf or the fourth true leaf was developed. The spray solution for test prepared above was sprayed at a rate of 20 ml/cup on the cabbages.
After the pesticidal solution sprayed onto the cabbages was dried, 5 second-instar larvae of Plutella xylostella were put on the cabbages. After 5 days, the number of dead Plutella xylostella was examined, and a dead pest rate was calculated by the following equation:
(§1) Dead pest rate(%)=(the number of dead pests/the number of tested pests)×100

Plutella xylostella [3] = assay: Test Example 2: cabbage root immersion (systemic), dead pest rate of Plutella xylostella larvae; conditions: Plutella xylostella, 120 h, root immersion 5 days, 10 second-instar larvae, after 5 days at 24° C.; for pest or weed control at 25 ppm: test concentration 25 ppm
Method: In 0.25 mL of a mixture solution of Sorgen TW-20 (manufactured by Daiichi Industries Pharmaceuticals, Co., Ltd.) and acetone (mixture volume ratio; Sorgen TW-20:acetone=1:19), 2.5 mg of the present compound (1), (2), (3), (4), (7), (10), (11), (12), (16), (18), (19), (20), (21), (22), (25), (30), (36), (37), (41), (42), (52), (54), (56), (57), (60), (62), (105) or (109) was dissolved. The solution was diluted with ion-exchanged water so that the active ingredient concentration became to a predetermined concentration to prepare a pesticidal solution for test of the test compound. The root part of cabbages in the fourth leaf period were washed with tap water to remove soils, and then immersed in the pesticidal solution for test. After 5 days from immersion of the root part, the root part was removed, and the leaves and stems were put in a cup (volume; 180 mL). In the cup 10 second-instar larvae of Plutella xylostella were released, and the cup was stored at 24° C. After 5 days, the number of dead pests was counted, and the dead pest rate was calculated by the following equation:
as §1
The test concentrations of the other present compounds were 25 ppm.

Plutella xylostella [4] = assay: Test Example 9: spray on plants, cut aerial part, dead pest rate of third-instar Plutella xylostella larvae; conditions: 120 h, spray 20 ml/cup, 10 third-instar larvae, after 5 days at 25° C.; for pest or weed control at 12.5 ppm: test concentration 12.5 ppm; for pest or weed control at 50 ppm: test concentration 50 ppm; for pest or weed control at 200 ppm: test concentration 200 ppm
Method: In a mixed solution (0.1 mL) of xylene and N,N-dimethylformamide (mixture volume ratio; xylene:N,N-dimethylformamide=1:1), 30 mg of the present compounds (3), (4), (20), (35), (62), (81), (100), (101) or (112) was dissolved, and further a mixed solution (0.1 mL) of xylene and SORPOL 3005X (manufactured by Toho Chemcials, Co., Ltd.) (mixture volume ratio; xylene:SORPOL 3005X=1:9) was added thereto. The solution was diluted with ion-exchanged water so that the active ingredient became to the predetermined concentration to prepare a pesticidal solution for test of the test compound.
[…] were planted in polyethylene cups, and grown until the third true leaf or the fourth true leaf was developed. The spray solution for test prepared above was sprayed at a rate of 20 ml/cup on the cabbages.
After the pesticidal solution for test was dried, the aerial part of the cabbage was cut, and put into a polyethylene cup having a volume of 100 ml together with 10 third-instar larvae of Plutella xylostella, and stored at 25° C. After 5 days, the number of dead pests was countered, and the dead pest rate was calculated by the following equation:
as §1
Test concentrations of the others were 200 ppm.

Spondoptela litura = assay: Test Example 3: treated artificial diet (Insecta LF), dead pest rate of Spondoptela litura larvae; conditions: 2 mL on Insecta LF diet, 5 fourth-instar larvae, after 6 days; for pest or weed control at 500 ppm: 144 h
Source text: Ten parts of the present compound (1) to (5), (7) to (13), (18) to (33), (35) to (49), (52) to (56), (58) to (61), (71), (73) to (77), (79), (80), (82), (83), (93), (94), (95), (96), (97), (100) to (109), (111), (112), (115), (117), (119), (121), or (123) to (133), 35 parts of white carbon containing 50 parts of polyoxyethylene alkyl ether sulfate ammonium salt, and 55 parts of water were mixed, and finely ground by a wet grinding method to obtain a preparation. The obtained preparation was diluted with water so that the active ingredient concentration became to 500 ppm to prepare a pesticidal solution for test. On the bottom of a polyethylene cup having a diameter of 5.5 cm, a filter paper having a diameter of 5.5 cm was placed, on which Insecta LF (Nippon Agriculture Industries, Co., Ltd.) sliced in a thickness of 6 mm and further cut half was laid, and to which 2 mL of the above-described pesticidal solution for test was added. After air-dried, 5 fourth-instar larvae of Spondoptela litura were released in the cup, and the cup was capped. After 6 days, the number of dead pests was counted, and the dead pest rate was calculated by the following equation:
as §1

Plutella xylostella [5] = assay: Test Example 6: cabbage root immersion, Plutella xylostella, against comparative compound C; conditions: 100 ppm; root immersion 5 days; 10 second-instar larvae; after 5 days at 24° C.
Method: (§2) In 0.25 mL of a mixed solution of Tween-20 and acetone (mixture volume ratio: Tween-20:acetone=1:19), 2.5 mg of the present compound (93) or comparative compound C was dissolved. The solution was diluted with ion-exchanged water so that the active ingredient concentration became to the predetermined concentration (100 ppm) to prepare a pesticidal solution for test of the test compound. The root part of cabbages in the fourth leaf period was washed with tap water to remove soils, and then immersed in the pesticidal solution for test. After 5 days from immersion of the root part, the root part was removed, and the leaves and stems were put in a polyethylene cup (volume; 180 mL). In the cup 10 second-instar larvae of Plutella xylostella were released, and the cup was stored at 24° C. After 5 days, the number of dead pests was countered, and the dead pest rate was calculated by the following equation:
as §1

Plutella xylostella [6] = assay: Test Example 7: cabbage root immersion, Plutella xylostella, against comparative compound D; conditions: 25 ppm; root immersion 5 days; 10 second-instar larvae; after 5 days at 24° C.
Method: as §2, with “compound (94)” for “compound (93)”, “compound D” for “compound C”, “concentration (25” for “concentration (100”, “a ice cream” for “a polyethylene”
as §1

CN(C(=O)NC(=O)c1c(F)cccc1F)c1ccc(SC(F)(F)F)cc1F [(1)]
pest or weed control at 50 ppm [1]: 100% | pest or weed control at 500 ppm (Plutella xylostella [2]): 100% | pest or weed control at 25 ppm (Plutella xylostella [3]): 100%

CN(C(=O)NC(=O)c1c(F)cccc1F)c1ccc(SC(F)(F)C(F)F)cc1F [(2)]
pest or weed control at 50 ppm [1]: 100% | pest or weed control at 500 ppm (Plutella xylostella [2]): 100% | pest or weed control at 25 ppm (Plutella xylostella [3]): 100%

CN(C(=O)NC(=O)c1c(F)cccc1Cl)c1ccc(SC(F)(F)F)cc1F [(3)]
pest or weed control at 25 ppm (Plutella xylostella [3]): 100% | pest or weed control at 12.5 ppm (Plutella xylostella [4]): 100%

CCN(C(=O)NC(=O)c1c(F)cccc1F)c1ccc(SC(F)(F)F)cc1F [(4)]
pest or weed control at 50 ppm [1]: 100% | pest or weed control at 25 ppm (Plutella xylostella [3]): 100% | pest or weed control at 50 ppm (Plutella xylostella [4]): 100%

CN(C(=O)NC(=O)c1c(F)cccc1F)c1ccc(S(=O)(=O)C(F)(F)F)cc1F [(20)]
pest or weed control at 5 ppm (Plutella xylostella [3]; test concentration of 5 ppm, read-out: dead pest rate): 100% | pest or weed control at 12.5 ppm (Plutella xylostella [4]): 100%

Cc1cc(SC(F)F)ccc1N(C)C(=O)NC(=O)c1c(F)cccc1F [(35)]
pest or weed control at 50 ppm (Plutella xylostella [4]): 100%

CN(C(=O)N(CCOc1ccccc1)C(=O)c1c(F)cccc1F)c1ccc(SC(F)(F)F)cc1F [(62)]
pest or weed control at 50 ppm [1]: 100% | pest or weed control at 25 ppm (Plutella xylostella [3]): 100% | pest or weed control at 200 ppm (Plutella xylostella [4]): 100%

CN(C(=O)N(CC1CCCO1)C(=O)c1c(F)cccc1F)c1ccc(SC(F)(F)F)cc1F (stereo not shown) [(63)]
pest or weed control at 500 ppm (Plutella xylostella [2]): 100%

CN(C(=O)N(Cc1ccco1)C(=O)c1c(F)cccc1F)c1ccc(SC(F)(F)F)cc1F [(64)]
pest or weed control at 500 ppm (Plutella xylostella [2]): 100%

CN(C(=O)N(CC[S+](C)[O-])C(=O)c1c(F)cccc1F)c1ccc(SC(F)(F)F)cc1F (stereo not shown) [(74)]
control value (Plutella xylostella [2]): 100%

COC(=O)CN(C(=O)c1c(F)cccc1F)C(=O)N(C)c1ccc(SC(F)(F)F)cc1F [(81)]
pest or weed control at 50 ppm [1]: 100% | pest or weed control at 200 ppm (Plutella xylostella [4]): 100%

CN(C(=O)NC(=O)c1c(F)cccc1F)c1ccc(C(=O)OC(C)(C)C)cc1 [(82)]
control value (Plutella xylostella [2]): 100% | dead pest rate (Spondoptela litura; 500 ppm): 100%

C=CCSc1ccc(N(C)C(=O)NC(=O)c2c(F)cccc2F)c(F)c1 [(83)]
pest or weed control at 500 ppm (Plutella xylostella [2]): 100% | pest or weed control at 500 ppm (Spondoptela litura): 100%

C#CCSc1ccc(N(C)C(=O)NC(=O)c2c(F)cccc2F)c(F)c1 [(89)]
pest or weed control at 500 ppm (Plutella xylostella [2]): 100%

CN(C(=O)NC(=O)c1c(F)cccc1F)c1cc(Cl)c(SC(F)(F)C(F)F)c(Cl)c1 [(93)]
dead pest rate (Plutella xylostella [5]): 90% | pest or weed control at 500 ppm (Plutella xylostella [2]): 100% | pest or weed control at 500 ppm (Spondoptela litura): 100%

CN(C(=O)N(C(=O)OCc1ccccc1)C(=O)c1c(F)cccc1F)c1ccc(SC(F)(F)F)cc1F [(97)]
pest or weed control at 50 ppm [1]: 100% | pest or weed control at 500 ppm (Plutella xylostella [2]): 100% | pest or weed control at 500 ppm (Spondoptela litura): 100%

CN(C(=O)N(C(=O)c1c(F)cccc1F)S(=O)(=O)c1ccccc1)c1ccc(SC(F)(F)F)cc1F [(99)]
pest or weed control at 500 ppm (Plutella xylostella [2]): 100%

CN(C(=O)NC(=O)c1c(F)cccc1F)c1cc(F)c(SC(F)(F)F)cc1F [(100)]
pest or weed control at 200 ppm (Plutella xylostella [4]): 100%

CN(C(=O)c1c(F)cccc1F)C(=O)N(C)c1cc(F)c(SC(F)(F)F)cc1F [(101)]
pest or weed control at 50 ppm [1]: 100% | pest or weed control at 200 ppm (Plutella xylostella [4]): 100%

Cc1c(SC(F)F)ccc(N(C)C(=O)NC(=O)c2c(F)cccc2F)c1C [(111)]
pest or weed control at 500 ppm (Plutella xylostella [2]): 100% | pest or weed control at 500 ppm (Spondoptela litura): 100%

Cc1c(SC(F)F)ccc(N(C)C(=O)N(C)C(=O)c2c(F)cccc2F)c1C [(112)]
pest or weed control at 500 ppm (Spondoptela litura): 100% | pest or weed control at 50 ppm (Plutella xylostella [4]): 100%

CN(C(=O)N(C(=O)c1c(F)cccc1F)N(C)C)c1ccc(SC(F)(F)F)cc1F [(115)]
pest or weed control at 500 ppm (Plutella xylostella [2]): 100% | pest or weed control at 500 ppm (Spondoptela litura): 100%

CON(C(=O)c1c(F)cccc1F)C(=O)N(C)c1ccc(SC(F)(F)F)cc1F [(116)]
pest or weed control at 500 ppm (Plutella xylostella [2]): 100%

O=C(NC(=O)c1c(F)cccc1F)Nc1cc(Cl)c(SC(F)(F)C(F)F)c(Cl)c1 [comparative compound C, reference compound]
dead pest rate (Plutella xylostella [5]): 20%

O=C(NC(=O)c1c(F)cccc1F)Nc1ccc(SC(F)(F)C(F)F)cc1 [comparative compound D, reference compound]
dead pest rate (Plutella xylostella [6]): 20%
